In patent US20220119772A1, “COMPOSITIONS AND METHODS FOR TREATMENT OF A MALABSORPTIVE DISORDER” (CHILDREN'S HOSPITAL MEDICAL CENTER, priority 2019, published 2022):
Ends that are not written are not given here.

How the values were obtained:
[1] = tested on: HIO-derived enteroids; assay: Enteroid swelling assay (VIP-induced, CFTR-mediated ion and water efflux); assay type: cell-based, human; conditions: for VIP-induced enteroid swelling: 10 nM VIP, 6 h, 10 nM PYY or 20 μM CFTR-172 added 24 h before imaging
Description: Enteroids were plated in 10 μL Matrigel on an 8-chamber glass bottom slide (Ibidi) and maintained as described above. 3-5 days post-plating, the slide was mounted on an inverted confocal microscope (Nikon) fitted with an incubation chamber set to 37° C. and 5% CO2. Media was changed to include 10 nM VIP (Tocris). In some experiments, the media was changed 24 hours prior to imaging to include 20 μM CFTR (inh)-172 (Millipore Sigma) or 10 nM PYY (Phoenix Pharmaceuticals). Images were acquired every 5 minutes at 4× magnification. After 6 hours, some HIOEs swelled to the point of bursting; therefore, Applicant used images acquired at time 0 and at 6 hours for quantification. The area of 10 representative enteroids per well was quantified using NIS Elements software at both time points. The outline of individual enteroids was traced manually and the area calculated by NIS Elements. Fold change at 6 hours over baseline was reported. Data include a minimum of three independent experiments per condition.

[2] = tested on: mouse jejunum; assay: Ussing chamber electrophysiology, peptides/chemicals added ex vivo, mouse jejunum; assay type: cell-based; conditions: for initial Isc response to luminal glucose: then 25 mM D-glucose
Description: (§1) Electrophysiological experiments were conducted as described^28 with minor modifications. Mouse jejunum and transplanted HIOs were dissected and immediately placed in ice-cold Krebs-Ringer solution. Tissues were opened to create a flat epithelial surface. Because seromuscular stripping is associated with release of cyclooxygenases and prostaglandins^28, and prostaglandins can stimulate L-cells to release GLP1, GLP2 and PYY^36, Applicant performed the Ussing chamber experiments in intestinal tissue with an intact muscular layer. Tissues were mounted into sliders (0.031 cm^2 area slider, P2307, Physiological Instruments) and placed in an Ussing chamber with reservoirs containing 5 mL buffer (115 mM NaCl, 1.2 mM CaCl2, 1.2 mM MgCl2, 25 mM NaHCO3, 2.4 mM K2HPO4 and 0.4 mM KH2PO4). The mucosal and serosal tissue surfaces were bathed in the same solution, with the exception of 10 mM glucose in the serosal buffer and 10 mM mannitol in the luminal buffer. Mucosal and serosal reservoir solutions were gassed with 95% O2 and 5% CO2 to pH 7.4 and maintained at 37° C. by a circulating water bath behind the reservoir chambers. Electrophysiology parameters were recorded as previously described^37. Tissue was allowed to equilibrate to a basal steady-state for a minimum of 30 minutes before the addition of chemicals or peptides. 10 nM tetrodotoxin (Tocris) was added to the serosal buffer bathing mouse intestine to inhibit voltage-gated neuronal firing and allowed to incubate for a minimum of 10 minutes before basal Isc recording. D-glucose and Gly-Sar were added to the luminal side of the chamber once the VIP-induced Isc had stabilized at a maximum value.

[3] = tested on: human small intestinal tissue (transplanted HIOs); assay: Ussing chamber electrophysiology, peptides/chemicals added ex vivo, transplanted HIO tissue; assay type: cell-based; conditions: for initial Isc response to luminal glucose: then 25 mM D-glucose
Description: (§2) 28-35 days after spheroid generation, HIOs were removed from Matrigel and transplanted under the kidney capsule of immune deficient NOD.Cg-Prkdc^scidI12rg^tmIWjl/SzJ (NSG) mice as previously described^16. NSG mice were maintained on Bactrim chow for a minimum of 2 weeks prior to transplantation and thereafter for the duration of the experiment (8-14 weeks).
as §1

[4] = tested on: HIO-derived enteroids; assay: Intracellular pH assay (pHrodo, flow cytometry) in enteroids; assay type: cell-based, human
Description: (§3) Enteroids were differentiated for 5-7 days in the presence of vehicle (water), 10 nM VIP (Tocris) or 10 nM PYY (Phoenix Pharmaceuticals) and 10 nM VIP. On the final day, enteroids were removed from Matrigel and enzymatically dissociated into single-cell suspension using 0.25% Trypsin-EDTA. Cell suspensions were counted and equal cell numbers of dissociated HIOEs were incubated in pHrodo Green AM Intracellular pH indicator (ThermoFisher Scientific) according to manufacturer's directions for 30 minutes at 37 C., washed with 1X PBS, and analyzed by flow cytometry.
(§4) After mechanical and enzymatic dissociation, tissues were filtered through a 40 μm cell strainer to obtain a single-cell suspension. In all experiments, samples were labeled with either CDH1-mRuby2 or Anti-EpCam-APC (BD Biosciences) to distinguish epithelial cells and incubated with SYTOX Blue dead cell stain (Life Technologies) or 7-AAD (BD Pharmingen). Forward scatter and side scatter were used to discriminate doublets and cellular debris. A minimum of 50,000 events per sample was recorded using an LSR Fortessa flow cytometer (BD Biosciences) and data was analyzed using FACSDiva software (BD Biosciences).

[5] = tested on: SLC9A3 (NHE3) expression; assay: qPCR of SLC9A3 (NHE3) expression in enteroids; assay type: cell-based, human
Description: RNA was extracted using Nucleospin RNA extraction kit (Macharey-Nagel) and reverse transcribed into cDNA using Superscript VILO (Invitrogen) according to manufacturer's instruction. qPCR primers were designed using NCBI PrimerBlast. Primer sequences are listed in the table below. qPCR was performed using Quantitect SYBR® Green PCR kit (QIAGEN) and a QuantStudio 3 Flex Real-Time PCR System (Applied Biosystems). Relative expression was determined using the […] method and normalizing to PPIA (cyclophilin A). Samples from at least three independent passages were used for quantification.
as §3

[6] = tested on: VillinCre;Neurog3flox/flox (EEC-deficient) mice; assay: PYY rescue of EEC-deficient mice (daily i.p. injection), with ex vivo analysis of jejunum; assay type: in vivo, mouse
Description: as §1, §4
VillinCre;Neurog3^flox/flox mice^4 and their littermates were weighed, genotyped and visually examined for liquid feces daily beginning at postnatal day 10. Applicant established a diarrhea score, with 3 representing wet, yellow feces that smeared the perianal fur, and 0 representing normal, dry, brown, well-defined pellets. Mutant mice which suffered from diarrhea score 3 were included in the rescue experiment. 10 μg PYY (Phoenix Pharmaceuticals) was diluted in water and added to 20 μl DPP4 inhibitor (Millipore) to a final volume of 100 μl per mouse. Mice were injected intraperitoneally with this cocktail within 2 hours of the onset of the dark cycle (7 pm) daily until analysis at postnatal day 28-35. Mice were given access to solid chow on the floor of the cage beginning at postnatal day 10 and weaned at postnatal day 21.

[7] = tested on: EEC-deficient HIOs transplanted in NSG mice; assay: PYY treatment of NSG mice hosting EEC-deficient HIOs, Ussing chamber analysis of HIO tissue; assay type: in vivo, human
Description: as §2
Electrophysiological experiments were conducted as described^28 with minor modifications. Mouse jejunum and transplanted HIOs were dissected and immediately placed in ice-cold Krebs-Ringer solution. Tissues were opened to create a flat epithelial surface. Because seromuscular stripping is associated with release of cyclooxygenases and prostaglandins^28, and prostaglandins can stimulate L-cells to release GLP1, GLP2 and PYY^36, Applicant performed the Ussing chamber experiments in intestinal tissue with an intact muscular layer. […] Electrophysiology parameters were recorded as previously described^37. […]
NSG mice hosting HIOs were treated with 25 μg PYY (Phoenix Pharmaceuticals) diluted in water to 100 μL by intraperitoneal injection. Mice were treated daily for a minimum of 10 days after HIOs had been maturing for 8 weeks, then dissected and analyzed.

PYY: Peptide YY, PYY(1-36) from Phoenix Pharmaceuticals; EEC-derived gut peptide acting on NPY1R; co-injected with DPP4 inhibitor in mice
VIP-induced enteroid swelling ([1]; EEC-deficient enteroids): significant inhibition of VIP-induced swelling
VIP-induced enteroid swelling ([1]; wild type enteroids): significant inhibition of VIP-induced swelling
basal Isc ([2]; EEC-deficient (mutant) mouse tissue, 10 nM PYY added): lowered the basal Isc
initial Isc response to luminal glucose ([2]; EEC-deficient mouse tissue treated with VIP, pre-treatment with 10 nM PYY): returned to wild type levels
Isc response to luminal dipeptide Gly-Sar ([2]; EEC-deficient mouse tissue, 10 minutes pre-treatment with 10 nM PYY, VIP present): did not alter the Isc response to Gly-Sar
magnitude of response (ΔIsc) to VIP ([2]; EEC-deficient mutant mice, 10 nM VIP, exogenous PYY added): reduced the magnitude of response (ΔIsc) to VIP
basal Isc ([3]; EEC-deficient (mutant) human tissue, 10 nM PYY added): lowered the basal Isc
initial Isc response to luminal glucose ([3]; EEC-deficient HIO tissue treated with VIP, pre-treatment with 10 nM PYY): returned to wild type levels
magnitude of response (ΔIsc) to VIP ([3]; EEC-deficient mutant HIOs, 10 nM VIP, exogenous PYY added): reduced the magnitude of response (ΔIsc) to VIP
intracellular pH ([4]; EEC-deficient enteroids, 10 nM VIP with concurrent 10 nM PYY for 5-7 days): normalized the pH in EEC-deficient enteroids
SLC9A3 expression ([5]; EEC-deficient enteroids, PYY concurrently with VIP, 5-7 days): restored SLC9A3 expression to not significantly different from untreated
survival of EEC-deficient (mutant) mice ([6]; 10 μg PYY(1-36) i.p. once daily from P10, co-injected with DPP4 inhibitor): up to 88%
Isc response to luminal Gly-Sar ([6]; EEC-deficient mice, long-term PYY treatment, compared to untreated mutant): improved Isc response to luminal Gly-Sar
response to luminal glucose ([6]; EEC-deficient mouse intestine after in vivo PYY treatment): restores a normal glucose response
MFI of pHrodo intensity (intracellular pH, proton transport) ([6]; EEC-deficient vs EEC-rich regions of mosaic jejunum after PYY treatment): normalized
electrogenic response to VIP ([6]; jejunum of mutant mice treated with PYY in vivo): restored to wild type levels
basal (resting) Isc of jejunum ([6]; mutant jejunum in Ussing chamber after in vivo injections of PYY): significantly decreased
diarrhea score (average) ([6]; within 48 hours of PYY treatment, score 3 = watery diarrhea, 0 = well-defined pellets, 10 μg PYY i.p. daily with DPP4 inhibitor): 1
response to luminal glucose ([7]; EEC-deficient HIOs, host animals injected with 25 μg PYY i.p. daily for 10 days): restores a normal glucose response
Isc response to luminal Gly-Sar ([7]; EEC-deficient transplanted HIOs, host animals treated long-term with PYY, compared to untreated mutant): improved Isc response to luminal Gly-Sar

O=C(O)c1ccc(/C=C2\SC(=S)N(c3cccc(C(F)(F)F)c3)C2=O)cc1 [CFTR-172]
VIP-induced enteroid swelling ([1]; EEC-deficient enteroids): blocked
VIP-induced enteroid swelling ([1]; wild type enteroids): blocked
electrogenic response to VIP ([2]; wild type and mutant jejunum pre-treated with 20 μM CFTR-172): blocked
electrogenic response to VIP ([3]; wild-type and EEC-deficient human tissue, 20 μM CFTR-172): blocked

VIP: vasoactive intestinal peptide (Tocris), ENS-derived peptide signalling via VIPR1 to raise cAMP (HSDAVFTDNYTRLRKQMAVKKYLNSILN-NH2; ends and bridges not checked; UniProt P01282 125-152, looked up)
ion and water transport as measured by organoid swelling ([1]; 10 nM VIP added to enteroids): induced ion and water transport
intracellular pH ([4]; EEC-deficient enteroids differentiated with 10 nM VIP for 5-7 days): developed an H^+ imbalance with an acidic cytoplasm
SLC9A3 expression ([5]; EEC-deficient enteroids, 5-7 days of exposure to VIP): reduced
SLC9A3 expression ([5]; wild type enteroids, 5-7 days of exposure to VIP): reduced

NC(=O)NCc1ccc(CNC(=O)[C@@H](CCCN=C(N)N)NC(=O)C(c2ccccc2)c2ccccc2)cc1 [BIB03304, N-[(1R)-1-[[[[4-[[(Amirtocarbortyl)amino]methyl]phenyl]methyl]amino]carbonyl]-4-[(aminoiminomethyl)amino]butyl]-α-phenyl-benzeneacetamide ditrifluoroacetate]
initial Isc response to luminal glucose ([2]; wild-type mouse tissue treated with VIP, NPY1R antagonist BIB03304): caused an abnormal initial response to glucose that mimicked EEC-deficient tissues
response (ΔIsc) to VIP ([2]; wild-type mouse tissue, 10 nM VIP, PYY receptor inhibited with BIB03304): elevated response to VIP compared to untreated wild-type
basal Isc ([2]; wild-type mouse tissue, 300 nM BIB03304 added): reproducibly increased the basal Isc
Isc response to luminal dipeptide Gly-Sar ([2]; wild-type mouse tissue, 10 minutes pre-treatment with 300 nM BIB03304): did not alter the Isc response to Gly-Sar
initial Isc response to luminal glucose ([3]; wild-type HIO tissue treated with VIP, NPY1R antagonist BIB03304): caused an abnormal initial response to glucose that mimicked EEC-deficient tissues
response (ΔIsc) to VIP ([3]; wild-type human tissue, 10 nM VIP, PYY receptor inhibited with BIB03304): elevated response to VIP compared to untreated wild-type
basal Isc ([3]; wild-type human tissue, 300 nM BIB03304 added): reproducibly increased the basal Isc
Isc response to luminal dipeptide Gly-Sar ([3]; wild-type human tissue, 10 minutes pre-treatment with 300 nM BIB03304): did not alter the Isc response to Gly-Sar
